Test [1] addresses C-C chemokine receptor type 2 (Homo sapiens, UniProt P41597). In kind it is cell membranes, CHO-K1, Membrane. The settings on record: cho-k1.
Test [2] can be described thus: DRUGMATRIX: Glutamate, NMDA, Phencyclidine radioligand binding (ligand: [3H] TCP). The format is cell membranes, Rattus norvegicus, Wistar, Cerebral cortex, Membrane. The settings on record: Not Active = under 50% inhibition at 10 µM.
A further test addresses T1, Progesterone receptor (Bos taurus, UniProt Q690N0).
T1 sequence (Q690N0 whole entry): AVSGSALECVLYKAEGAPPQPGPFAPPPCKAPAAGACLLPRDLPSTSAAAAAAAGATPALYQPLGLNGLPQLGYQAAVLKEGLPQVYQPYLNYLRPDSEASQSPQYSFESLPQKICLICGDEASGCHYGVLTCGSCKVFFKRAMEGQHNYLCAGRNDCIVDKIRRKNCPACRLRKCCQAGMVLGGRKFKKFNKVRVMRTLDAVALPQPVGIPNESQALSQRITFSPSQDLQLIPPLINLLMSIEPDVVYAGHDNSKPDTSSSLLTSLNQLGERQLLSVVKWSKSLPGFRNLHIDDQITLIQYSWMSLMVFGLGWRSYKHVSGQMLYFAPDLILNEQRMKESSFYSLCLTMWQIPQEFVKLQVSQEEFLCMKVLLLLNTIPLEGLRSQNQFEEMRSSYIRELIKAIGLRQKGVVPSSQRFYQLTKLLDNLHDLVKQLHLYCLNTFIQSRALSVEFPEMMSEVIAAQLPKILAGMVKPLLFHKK
The test is described as follows: DRUGMATRIX: Progesterone radioligand binding (ligand: [3H] R-5020). The settings on record: Not Active = under 50% inhibition at 10 µM. In kind it is tissue-based, Uterus.

The target of test [3] is T2, Vasoactive intestinal polypeptide receptor 1 (Homo sapiens, UniProt P32241). Also: in other assays of this panel Not Active means under 50% inhibition at 10 µM.
T2 sequence (P32241 whole entry): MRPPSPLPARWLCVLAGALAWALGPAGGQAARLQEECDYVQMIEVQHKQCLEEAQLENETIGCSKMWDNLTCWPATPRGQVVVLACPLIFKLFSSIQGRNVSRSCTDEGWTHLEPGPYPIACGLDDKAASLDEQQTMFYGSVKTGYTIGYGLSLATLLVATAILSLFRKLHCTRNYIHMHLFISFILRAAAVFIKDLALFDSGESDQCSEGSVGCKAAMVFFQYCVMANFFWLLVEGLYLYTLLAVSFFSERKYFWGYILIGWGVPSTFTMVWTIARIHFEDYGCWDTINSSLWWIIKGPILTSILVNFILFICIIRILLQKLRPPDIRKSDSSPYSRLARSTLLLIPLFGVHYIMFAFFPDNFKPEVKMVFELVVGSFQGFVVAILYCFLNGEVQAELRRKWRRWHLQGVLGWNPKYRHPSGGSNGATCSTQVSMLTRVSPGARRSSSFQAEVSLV
The format is cell membranes, Membrane. The following applies: ht-29.

For test [4], the target named is Sodium-dependent noradrenaline transporter (Homo sapiens, UniProt P23975). The test is described as follows: DRUGMATRIX: Norepinephrine Transporter radioligand binding (ligand: [125I] RTI-55). In kind it is cell membranes, MDCK, Membrane. The settings on record: Not Active = under 50% inhibition at 10 µM; for Ki: read-out: Ki.
Sodium-dependent noradrenaline transporter, sequence (P23975 whole entry): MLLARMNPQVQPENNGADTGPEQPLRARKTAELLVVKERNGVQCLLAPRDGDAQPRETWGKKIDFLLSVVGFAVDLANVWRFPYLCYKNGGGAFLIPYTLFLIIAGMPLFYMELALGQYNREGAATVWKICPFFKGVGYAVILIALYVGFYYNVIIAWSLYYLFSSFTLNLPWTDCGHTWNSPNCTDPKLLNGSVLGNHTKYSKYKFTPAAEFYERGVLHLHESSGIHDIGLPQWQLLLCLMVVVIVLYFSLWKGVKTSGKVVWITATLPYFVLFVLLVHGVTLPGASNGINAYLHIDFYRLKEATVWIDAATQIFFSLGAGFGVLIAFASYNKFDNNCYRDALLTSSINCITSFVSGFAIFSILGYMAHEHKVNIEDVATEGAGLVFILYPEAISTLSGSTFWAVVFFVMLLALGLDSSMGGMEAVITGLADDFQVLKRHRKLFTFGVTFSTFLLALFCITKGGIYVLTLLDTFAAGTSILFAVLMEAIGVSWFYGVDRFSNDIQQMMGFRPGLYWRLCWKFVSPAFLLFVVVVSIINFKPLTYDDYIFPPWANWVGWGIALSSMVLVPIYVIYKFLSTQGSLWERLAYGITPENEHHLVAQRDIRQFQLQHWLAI
In the next test the target is D(1A) dopamine receptor (Homo sapiens, UniProt P21728). The test is described as follows: DRUGMATRIX: Dopamine D1 radioligand binding (ligand: [3H] SCH-23390). The format is cell membranes, CHO, Membrane. The settings on record: cho; Not Active = under 50% inhibition at 10 µM.
D(1A) dopamine receptor, sequence (P21728 whole entry): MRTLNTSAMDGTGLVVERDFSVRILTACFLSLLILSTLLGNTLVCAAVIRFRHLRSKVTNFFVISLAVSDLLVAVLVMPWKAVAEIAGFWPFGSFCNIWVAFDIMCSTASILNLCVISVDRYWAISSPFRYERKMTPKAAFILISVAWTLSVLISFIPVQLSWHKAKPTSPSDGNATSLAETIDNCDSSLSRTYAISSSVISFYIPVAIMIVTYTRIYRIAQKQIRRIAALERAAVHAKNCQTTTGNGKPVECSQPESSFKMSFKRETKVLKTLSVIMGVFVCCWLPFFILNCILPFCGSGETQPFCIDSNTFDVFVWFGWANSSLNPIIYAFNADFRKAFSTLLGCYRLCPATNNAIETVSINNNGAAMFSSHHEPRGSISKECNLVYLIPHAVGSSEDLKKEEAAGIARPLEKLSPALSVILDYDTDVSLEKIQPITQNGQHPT
The target of test [5] is T3, Receptor-type tyrosine-protein phosphatase C (Homo sapiens, UniProt P08575).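 Also: inhibition of CD45 enzyme activity measured using DiFMUP as substrate; in other assays of this panel Not Active means under 50% inhibition at 10 µM.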
T3 sequence (P08575 whole entry): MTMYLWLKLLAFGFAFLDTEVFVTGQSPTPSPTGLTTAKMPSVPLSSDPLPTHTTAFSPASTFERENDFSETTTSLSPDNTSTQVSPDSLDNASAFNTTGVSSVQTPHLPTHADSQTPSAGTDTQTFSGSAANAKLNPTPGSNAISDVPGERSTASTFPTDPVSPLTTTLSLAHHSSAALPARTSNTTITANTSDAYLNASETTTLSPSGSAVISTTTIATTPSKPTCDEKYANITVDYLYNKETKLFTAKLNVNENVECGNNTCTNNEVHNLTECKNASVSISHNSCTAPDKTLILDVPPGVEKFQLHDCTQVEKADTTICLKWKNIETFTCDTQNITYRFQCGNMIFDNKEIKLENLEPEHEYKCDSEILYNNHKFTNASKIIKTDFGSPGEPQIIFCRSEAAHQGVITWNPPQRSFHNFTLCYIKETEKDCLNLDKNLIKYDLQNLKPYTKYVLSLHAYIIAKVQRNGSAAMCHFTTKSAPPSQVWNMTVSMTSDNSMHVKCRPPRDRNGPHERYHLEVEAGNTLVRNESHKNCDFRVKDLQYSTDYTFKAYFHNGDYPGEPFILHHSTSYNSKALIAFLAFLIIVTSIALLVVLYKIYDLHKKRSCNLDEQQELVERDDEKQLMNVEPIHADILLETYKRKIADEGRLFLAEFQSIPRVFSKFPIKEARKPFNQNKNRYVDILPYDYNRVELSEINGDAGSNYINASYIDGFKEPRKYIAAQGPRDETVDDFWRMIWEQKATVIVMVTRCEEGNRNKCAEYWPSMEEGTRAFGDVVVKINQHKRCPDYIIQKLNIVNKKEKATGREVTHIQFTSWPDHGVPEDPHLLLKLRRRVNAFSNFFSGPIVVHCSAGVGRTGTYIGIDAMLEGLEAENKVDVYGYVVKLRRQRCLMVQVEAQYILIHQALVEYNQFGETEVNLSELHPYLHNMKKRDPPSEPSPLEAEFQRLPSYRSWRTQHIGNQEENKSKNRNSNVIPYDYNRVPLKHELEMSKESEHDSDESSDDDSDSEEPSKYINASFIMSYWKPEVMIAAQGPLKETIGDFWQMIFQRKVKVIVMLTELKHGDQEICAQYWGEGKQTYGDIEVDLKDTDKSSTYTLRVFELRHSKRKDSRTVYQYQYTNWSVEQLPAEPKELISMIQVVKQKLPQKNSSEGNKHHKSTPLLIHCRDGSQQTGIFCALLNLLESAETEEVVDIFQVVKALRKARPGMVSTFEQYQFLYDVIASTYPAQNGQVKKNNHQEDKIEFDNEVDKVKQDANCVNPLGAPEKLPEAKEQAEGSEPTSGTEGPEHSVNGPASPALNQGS
More on the design: species or system Escherichia coli.

Molecules are shown by their SMILES.

C-C chemokine receptor type 2, sequence (P41597 whole entry): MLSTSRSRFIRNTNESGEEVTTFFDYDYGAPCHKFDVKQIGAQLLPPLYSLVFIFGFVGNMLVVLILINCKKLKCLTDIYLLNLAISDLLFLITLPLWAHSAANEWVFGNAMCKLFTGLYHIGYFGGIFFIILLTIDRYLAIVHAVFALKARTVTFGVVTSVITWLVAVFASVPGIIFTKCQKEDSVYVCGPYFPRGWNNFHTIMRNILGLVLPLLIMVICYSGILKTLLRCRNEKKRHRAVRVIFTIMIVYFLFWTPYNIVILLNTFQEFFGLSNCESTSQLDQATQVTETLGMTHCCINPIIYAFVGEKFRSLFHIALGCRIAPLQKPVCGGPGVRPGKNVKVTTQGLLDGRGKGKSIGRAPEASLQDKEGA

Usually IC50 stands for the concentration needed to halve the response being measured. A word on the Ki: it is the dissociation constant of the complex between target and ligand, obtained from inhibition or displacement. Turning to `COc1cc(N)nc2[nH]c(-c3ccc(F)cc3)c(-c3ccncc3)c12`, the IC50 result was “Not Active” in test [1]; “Not Active” in test [2]; “Not Active” on Progesterone receptor; “Not Active” in test [3]; 1070 nM in test [4] (read-out: IC50); “Not Active” at D(1A) dopamine receptor. Besides, in test [5], the IC50 result is given as “Not Active”. Also, the Ki result is “Not Active” in test [2] and 1060 nM in test [4].

On to `CNS(=O)(=O)Cc1ccc2[nH]cc(CCN(C)C)c2c1`, for which the IC50 entry (in test [1]; in test [2]; at Progesterone receptor; in test [3]; in test [4] (mdck); at D(1A) dopamine receptor) was “Not Active” each time. Also, the IC50 result in test [5] was “Not Active”. The Ki entry in test [2] is listed as “Not Active”.

Consider `CCCc1nn(C)c2c(=O)[nH]c(-c3cc(S(=O)(=O)N4CCN(C)CC4)ccc3OCC)nc12`, for which the IC50 entry (in test [1]; in test [2]; on Progesterone receptor; in test [3]; in test [4] (mdck); on D(1A) dopamine receptor) was “Not Active” each time. Also, the IC50 entry in test [5] was “Not Active”. The Ki entry in test [2] was “Not Active”.

Turning to `COc1ccc(/C=C/C(=O)Nc2ccccc2C(=O)O)cc1OC`, the IC50 entry (in test [1]; in test [2]; on Progesterone receptor; in test [3]; in test [4] (mdck); at D(1A) dopamine receptor) was “Not Active” throughout. For the same molecule, the IC50 result in test [5] was “Not Active”. Also, the Ki result in test [2] is reported as “Not Active”.

In the case of `CCOC(N)=O`, the IC50 result (in test [1]; in test [2]; at Progesterone receptor; in test [3]; in test [4] (mdck); on D(1A) dopamine receptor) was “Not Active” in each case. In test [5], the 50% inhibitory concentration (IC50) result is given as “Not Active”. Further, the Ki result in test [2] is “Not Active”.

Take `CC(=O)Nc1nnc(S(N)(=O)=O)s1` [ACETAZOLAMIDE]: the half-inhibitory concentration (IC50) result (in test [1]; at Progesterone receptor; in test [3]; in test [4] (mdck); in test [5]) was “Not Active” throughout.

As to `O=c1[nH]c2ccccc2n1CCCN1CCC(n2c(=O)[nH]c3cc(Cl)ccc32)CC1` [DOMPERIDONE], the concentration for half-maximal inhibition (IC50) result (in test [1]; at Progesterone receptor; in test [3]; in test [5]) was “Not Active” each time.

For `CC1=C(CC(=O)O)c2cc(F)ccc2/C1=C\c1ccc(S(C)(=O)=O)cc1` [EXISULIND], the 50% inhibitory concentration (IC50) entry (in test [1]; in test [2]; at Progesterone receptor; in test [3]; in test [4] (mdck); on D(1A) dopamine receptor) was “Not Active” each time. The IC50 result in test [5] is listed as “Not Active”. The Ki entry in test [2] is “Not Active”.

`CC(C)OC(=O)C(C)(C)Oc1ccc(C(=O)c2ccc(Cl)cc2)cc1` [FENOFIBRATE]: the IC50 result (in test [1]; on Progesterone receptor; in test [3]; in test [5]) was “Not Active” throughout.

For the molecule `OCCN1CCN(CCCN2c3ccccc3Sc3ccc(C(F)(F)F)cc32)CC1` [FLUPHENAZINE], the IC50 result was “Not Active” in test [1]; “Not Active” at Progesterone receptor; “Not Active” in test [3]; 1960 nM in test [4] (read-out: IC50); “Not Active” in test [5]. In addition, the inhibition constant Ki in test [4] turned out to be 1950 nM.

For the molecule `CN1C2CCCC1CC(NC(=O)c1nn(C)c3ccccc13)C2` (centres undefined) [GRANISETRON], the 50% inhibitory concentration (IC50) result (in test [1]; on Progesterone receptor; in test [3]; in test [4] (mdck); in test [5]) was “Not Active” throughout.

On to `Nc1nc2c(c(=O)[nH]1)N(C=O)C(CNc1ccc(C(=O)N[C@@H](CCC(=O)O)C(=O)O)cc1)CN2` (some centres undefined) [LEUCOVORIN], for which the IC50 entry (in test [1]; in test [2]; at Progesterone receptor; in test [3]; in test [4] (mdck); on D(1A) dopamine receptor) was “Not Active” throughout. In test [5], the 50% inhibitory concentration (IC50) result is recorded as “Not Active”. The Ki entry in test [2] was “Not Active”.

With `C[C@@H](O)[C@H]1C(=O)N2C(C(=O)O)=C(S[C@@H]3CN[C@H](C(=O)N(C)C)C3)[C@H](C)[C@H]12` [MEROPENEM], the IC50 result (in test [1]; in test [2]; at Progesterone receptor; in test [3]; in test [4] (mdck); at D(1A) dopamine receptor) was “Not Active” each time. Besides, the IC50 result in test [5] is listed as “Not Active”. Further, the Ki result in test [2] is recorded as “Not Active”.

Regarding `CC[C@@H](CO)NC(=O)[C@@H]1C=C2c3cccc4c3c(cn4C)C[C@H]2N(C)C1` [METHYSERGIDE], the IC50 entry (in test [1]; at Progesterone receptor; in test [3]; in test [4] (mdck); in test [5]) was “Not Active” each time.

In the case of `CCN(CC)CC#CCOC(=O)C(O)(c1ccccc1)C1CCCCC1` (centres undefined) [OXYBUTYNIN], the IC50 result (in test [1]; at Progesterone receptor; in test [3]; in test [5]) was “Not Active” each time.

For `O=P(O)(O)C(O)(Cc1cccnc1)P(=O)(O)O` [RISEDRONIC ACID], the IC50 entry (in test [1]; in test [2]; at Progesterone receptor; in test [3]; in test [4] (mdck); on D(1A) dopamine receptor) was “Not Active” in each case. Further, the concentration for half-maximal inhibition (IC50) result in test [5] is given as “Not Active”. Moreover, the Ki result in test [2] is given as “Not Active”.

For the molecule `CN(CCOc1ccc(CC2SC(=O)NC2=O)cc1)c1ccccn1` (centres undefined) [ROSIGLITAZONE], the IC50 result (in test [1]; in test [2]; on Progesterone receptor; in test [3]; in test [4] (mdck); at D(1A) dopamine receptor) was “Not Active” throughout. In test [5], the IC50 entry was “Not Active”. The Ki entry in test [2] is “Not Active”.

Turning to `O=c1n(CCCN2CCN(c3cccc(Cl)c3)CC2)nc2ccccn12` [TRAZODONE], the IC50 entry (in test [1]; at Progesterone receptor; in test [3]; in test [4] (mdck); in test [5]) was “Not Active” in each case.
